As usually defined, the EC50 is the concentration at which the effect is half-maximal. Read a high EC50 as a less potent agent.

We go through 20 compounds from article PMC8347595, “N-Skatyltryptamines—Dual 5-HT6R/D2R Ligands with Antipsychotic and Procognitive Potential” (Molecules, 2021).

Series [1] deals with 5-HT6. Also on record: method as in Dupuis et al. (2008) [31]. Particulars: Figure 8; ref Dupuis et al. (2008) [31]; cited from earlier work.
The target of series [2] is 5-HT2AR (Homo sapiens, UniProt P28223). Kind of series: Radioligand binding assay, [3H]-ketanserin displacement. On the set-up: host or cells: CHO-K1; membrane preparation. The following applies: Table 1.
5-HT2AR, sequence (P28223 whole entry): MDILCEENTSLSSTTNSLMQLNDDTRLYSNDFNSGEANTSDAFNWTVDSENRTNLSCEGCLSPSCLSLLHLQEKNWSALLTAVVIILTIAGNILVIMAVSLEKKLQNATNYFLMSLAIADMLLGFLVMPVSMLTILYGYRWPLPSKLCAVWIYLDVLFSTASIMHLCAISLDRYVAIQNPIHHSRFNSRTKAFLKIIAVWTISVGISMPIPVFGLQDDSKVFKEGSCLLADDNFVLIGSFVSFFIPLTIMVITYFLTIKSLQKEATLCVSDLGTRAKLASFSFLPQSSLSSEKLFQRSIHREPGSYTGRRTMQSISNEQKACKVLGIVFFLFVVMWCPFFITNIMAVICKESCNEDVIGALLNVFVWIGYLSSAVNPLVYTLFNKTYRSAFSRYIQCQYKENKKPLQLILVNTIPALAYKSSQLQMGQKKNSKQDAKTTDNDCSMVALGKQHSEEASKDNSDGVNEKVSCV
Series [3] has as its target T1, 5-HT1AR (Homo sapiens, UniProt P08908).
T1 sequence (P08908 1-422): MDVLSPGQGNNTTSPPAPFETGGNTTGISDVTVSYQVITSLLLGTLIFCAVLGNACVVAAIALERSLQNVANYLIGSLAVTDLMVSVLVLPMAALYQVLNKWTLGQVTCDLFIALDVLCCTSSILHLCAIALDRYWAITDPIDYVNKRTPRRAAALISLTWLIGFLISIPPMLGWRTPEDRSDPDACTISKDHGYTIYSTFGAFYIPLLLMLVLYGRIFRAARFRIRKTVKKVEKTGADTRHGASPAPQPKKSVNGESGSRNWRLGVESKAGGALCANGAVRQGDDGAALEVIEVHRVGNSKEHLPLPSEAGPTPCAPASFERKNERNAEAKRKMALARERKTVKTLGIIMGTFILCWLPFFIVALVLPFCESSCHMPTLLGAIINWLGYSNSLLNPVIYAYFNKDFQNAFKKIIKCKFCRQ
Kind of series: Radioligand binding assay, [3H]-8-OH-DPAT displacement.

Series [4] deals with 5-HT6R (Homo sapiens, UniProt P50406). Put plainly: Radioligand binding assay, [3H]-LSD displacement.
5-HT6R, sequence (P50406 whole entry): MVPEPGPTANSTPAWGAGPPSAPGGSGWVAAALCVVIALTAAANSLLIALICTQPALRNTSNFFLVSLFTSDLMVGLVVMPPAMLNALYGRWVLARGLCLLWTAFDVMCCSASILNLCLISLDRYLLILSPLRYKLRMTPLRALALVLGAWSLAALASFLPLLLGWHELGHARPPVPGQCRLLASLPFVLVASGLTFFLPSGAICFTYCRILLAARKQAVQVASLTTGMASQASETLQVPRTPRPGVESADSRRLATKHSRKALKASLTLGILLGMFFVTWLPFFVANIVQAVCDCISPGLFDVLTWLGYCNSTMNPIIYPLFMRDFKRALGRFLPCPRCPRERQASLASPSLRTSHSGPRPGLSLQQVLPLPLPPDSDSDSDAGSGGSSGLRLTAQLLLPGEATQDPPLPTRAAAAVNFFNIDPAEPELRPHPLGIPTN
For series [5], the target named is 5-HT7R (Homo sapiens, UniProt P34969). Kind of series: Radioligand binding assay, [3H]-5-CT displacement.
5-HT7R, sequence (P34969 1-432): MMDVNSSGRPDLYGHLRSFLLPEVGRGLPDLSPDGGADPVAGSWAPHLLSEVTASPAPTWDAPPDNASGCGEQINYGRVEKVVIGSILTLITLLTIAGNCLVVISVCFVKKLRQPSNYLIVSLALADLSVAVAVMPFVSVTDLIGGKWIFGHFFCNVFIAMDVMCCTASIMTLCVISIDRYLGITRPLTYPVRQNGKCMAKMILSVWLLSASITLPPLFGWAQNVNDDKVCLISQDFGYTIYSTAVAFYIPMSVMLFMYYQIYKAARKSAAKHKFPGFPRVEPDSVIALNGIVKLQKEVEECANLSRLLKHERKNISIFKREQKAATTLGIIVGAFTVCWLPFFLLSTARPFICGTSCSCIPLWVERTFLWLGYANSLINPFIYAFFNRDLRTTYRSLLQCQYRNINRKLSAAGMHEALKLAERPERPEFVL
Series [6] concerns the target T2, D2R (Homo sapiens, UniProt P14416). Put plainly: Radioligand binding assay, [3H]-raclopride displacement.
The conditions of series [7]: 5 h, 200 µM, pH 7.4.
For series [8], the target named is T3, Human Serotonin 5-HT6R (Homo sapiens, UniProt P50406).
T3 construct: host or cells: 1321N1 (frozen recombinant cells)
T3 sequence (P50406 whole entry): as the sequence (P50406 whole entry) above
Kind of series: 5-HT6R functional assay, antagonistic mode (cAMP induced by 5-CT, 1321N1 cells). In kind it is cell-based. The procedure: The properties of compounds to inhibit cAMP production induced by a 5-HT6R agonist 5-CT (1000 nM) was evaluated. Compounds were tested in triplicate at eight concentrations (10^−11–10^−4 M). The level of cAMP was measured using frozen recombinant 1321N1 cells expressing the Human Serotonin 5-HT6R (PerkinElmer). Total cAMP was measured using the LANCE cAMP Detection Kit (PerkinElmer), according to the manufacturer’s instructions. For quantification of cAMP levels, 2000 cells/well ([…]) were incubated with a mixture of compounds ([…]) for 30 min at room temperature in a 384-well white opaque microtiter plate. After incubation, the reaction was stopped and cells were lysed by the addition of […] of working solution ([…] ULight-anti-cAMP) for 1 h at room temperature. Time-resolved fluorescence resonance energy transfer (TR-FRET) was detected by an Infinite M1000 Pro (Tecan) using instrument settings from the LANCE cAMP Detection Kit manual. […] The agonistic properties of compounds were determined with an analogous procedure, but without stimulation with 5-CT [10, 36].

For series [9], the target named is T2, D2R. Put plainly: D2R functional assay, antagonist mode (cAMP, HEK293 cells). In kind it is cell-based. Also on record: expressed in transfected cells. As for the experimental part:
The supernatant was aspirated, and the cell pellet was resuspended in stimulation buffer (1 × HBSS, 5 mM HEPES, 0.5 mM IBMX, 0.1% BSA).
The functional properties of compounds were evaluated using the LANCE Ultra cAMP Detection Kit (PerkinElmer). D2 receptors in HEK293 cells are coupled to Gi subtype and decreased cAMP production. […] Each compound was tested in triplicate at eight concentrations (10^−11–10^−4 M).
For quantification of cAMP levels, cells (5 µL) were incubated with 5 µL mixture of compounds (tested ligand and forskolin with 100 nM quinpirole for antagonist binding mode) for 30 min at room temperature in 384-well white opaque microtiter plate (PerkinElmer). After incubation, the reaction was stopped and cells were lysed by the addition of 10 µL working solution (5 µL Eu-cAMP and 5 µL ULight-anti-cAMP). The assay plate was incubated for 1 h at room temperature. Time-resolved fluorescence resonance energy transfer (TR-FRET) signal was detected by an Infinite M1000 Pro (Tecan) using instrument settings from the LANCE Ultra cAMP Detection Kit manual.

The mark [10] stands for this setting: read-out: pKi 5-HT2A (converted).

Read-outs that look alike come from different tables or passages of the source.

T2 sequence (P14416 whole entry): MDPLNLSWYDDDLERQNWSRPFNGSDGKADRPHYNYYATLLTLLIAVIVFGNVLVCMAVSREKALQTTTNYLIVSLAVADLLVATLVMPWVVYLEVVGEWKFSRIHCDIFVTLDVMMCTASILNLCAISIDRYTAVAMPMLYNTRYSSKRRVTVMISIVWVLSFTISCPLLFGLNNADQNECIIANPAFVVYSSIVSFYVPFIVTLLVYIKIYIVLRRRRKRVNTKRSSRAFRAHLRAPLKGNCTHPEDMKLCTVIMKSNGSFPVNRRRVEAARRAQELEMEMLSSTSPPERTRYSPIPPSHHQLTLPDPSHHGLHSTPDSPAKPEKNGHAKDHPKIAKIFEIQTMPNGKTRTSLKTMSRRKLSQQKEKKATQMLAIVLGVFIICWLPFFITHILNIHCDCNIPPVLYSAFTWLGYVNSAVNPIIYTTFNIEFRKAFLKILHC

As for `O=C1CCc2ccc(OCCCCN3CCN(c4cccc(Cl)c4Cl)CC3)cc2N1` [Aripiprazole], the Kb in series [1] is […].
`Fc1cccc2c(CNCCc3c[nH]c4ccccc34)c[nH]c12` [Compound 16]: the Ki is 1230 nM in [2] (setting [10]); 5620 nM in series [3] (pKi 5-HT1A, Table 1); 316 nM in series [4] (pKi 5-HT6, Table 1); 12900 nM in [5].
In the case of `CN1CCN(C2=Nc3cc(Cl)ccc3Nc3ccccc32)CC1` [Clozapine], the Kb in series [1] was […].
For the compound `COc1ccc2[nH]cc(CCNCc3c[nH]c4cc(Cl)ccc34)c2c1` [Compound 21], the Ki in series [2] (setting [10]) is 174 nM; in series [3] (pKi 5-HT1A, Table 1), 186 nM; in [4] (pKi 5-HT6, Table 1), 52.5 nM; in series [6] (pKi D2, Table 1), 1550 nM; in series [5], 813 nM.
Regarding `COc1ccc2[nH]cc(CCNCc3c[nH]c4ccccc34)c2c1` [Compound 3], the Ki was 83.2 nM in series [2] (pKi 5-HT2A); 156 nM in series [3] (Ki 5-HT1AR); 155 nM in series [3] (pKi 5-HT1A, Table 1); 117 nM in series [4] (pKi 5-HT6, Table 1); 562 nM in series [5]. Moreover, in series [6] (Table 1), the “pKi D2” value is reported as 6.49.
`Ic1ccc2[nH]cc(CNCCc3c[nH]c4ccccc34)c2c1` [Compound 12]: the Ki in series [2] (setting [10]) was 2340 nM; in [3] (pKi 5-HT1A, Table 1), 490 nM; in series [4] (pKi 5-HT6, Table 1) it was 457 nM; in series [6] (pKi D2, Table 1), 2090 nM; in series [5] it was 5130 nM.
Consider `CCn1cc(C(=O)O)c(=O)c2cc(F)c(N3CCNCC3)cc21` [Norfloxacin, norfloxacin, reference compound], for which, in [7], the “PAMPA Pe ± SD” value was 0.56 10^−6 cm/s.
Consider `Fc1ccc2[nH]cc(CNCCc3c[nH]c4ccccc34)c2c1` [Compound 10], for which the Ki in series [2] (setting [10]) was 3470 nM; in series [3] (pKi 5-HT1A, Table 1) it was 490 nM; in series [4] (pKi 5-HT6, Table 1), 407 nM; in series [6] (pKi D2, Table 1), 8510 nM; in series [5], 4790 nM.
With `Oc1ccc2[nH]cc(CNCCc3c[nH]c4ccccc34)c2c1` [Compound 9], the Ki in series [2] (setting [10]) is 1950 nM; in series [3] (pKi 5-HT1A, Table 1), 2880 nM; in series [4] (pKi 5-HT6, Table 1) it was 2240 nM; in series [6] (pKi D2, Table 1), 7590 nM; in series [5], 5130 nM.
Turning to `Fc1ccc2c(CNCCc3c[nH]c4ccccc34)c[nH]c2c1` [Compound 13], the Ki in [2] (pKi 5-HT2A) was 2570 nM; in series [3], 1350 nM; in series [4] (Ki 5-HT6, Figure 8), 225 nM; in [4] (pKi 5-HT6, Table 1) it was 224 nM; in [6] (Ki D2, Figure 8) it was 299 nM; in series [6] (pKi D2, Table 1) it was 302 nM. Besides, in [5], the Ki is 18200 nM. Moreover, the Kb in series [8] stood at 30 nM; in series [9], 91 nM. In series [9], this compound gave an EC50 of 91 nM.
Take `Clc1cccc2c(CCNCc3c[nH]c4ccccc34)c[nH]c12` [Compound 7]: the Ki is 631 nM in series [2] (setting [10]); 5130 nM in series [3] (pKi 5-HT1A, Table 1); 133 nM in [4] (Ki 5-HT6, Figure 8); 132 nM in [4] (pKi 5-HT6, Table 1); 11700 nM in [6] (pKi D2, Table 1); 25100 nM in series [5].
Consider `Clc1ccc2c(CCNCc3c[nH]c4c(Cl)cccc34)c[nH]c2c1` [Compound 22], for which the Ki was 4070 nM in series [2] (setting [10]); 5620 nM in [3] (pKi 5-HT1A, Table 1); 363 nM in series [4] (pKi 5-HT6, Table 1); 5010 nM in series [6] (pKi D2, Table 1); 13200 nM in [5].
As to `Clc1ccc2[nH]cc(CNCCc3c[nH]c4ccccc34)c2c1` [Compound 11], the Ki in series [2] (setting [10]) was 3240 nM; in series [3] (pKi 5-HT1A, Table 1), 676 nM; in [4] (pKi 5-HT6, Table 1), 513 nM; in series [6] (pKi D2, Table 1), 2090 nM; in series [5] it was 3800 nM.
For the compound `c1ccc(COc2cccc3c(CNCCc4c[nH]c5ccccc45)c[nH]c23)cc1` [Compound 19], the Ki in series [2] (setting [10]) is 2290 nM; in [3] (pKi 5-HT1A, Table 1) it was 741 nM; in series [4] (Ki 5-HT6, Figure 8) it was 303 nM; in series [4] (pKi 5-HT6, Table 1), 302 nM; in series [6] (pKi D2, Table 1), 4070 nM; in [5] it was 11200 nM.
Consider `Brc1cccc2c(CCNCc3c[nH]c4ccccc34)c[nH]c12` [Compound 8], for which the Ki was 776 nM in [2] (setting [10]); 6030 nM in [3] (pKi 5-HT1A, Table 1); 161 nM in series [4] (Ki 5-HT6, Figure 8); 162 nM in series [4] (pKi 5-HT6, Table 1); 3020 nM in series [6] (pKi D2, Table 1); 20400 nM in [5].
Regarding `Cc1cc2c(s1)Nc1ccccc1N=C2N1CCN(C)CC1` [Olanzapine], in series [1], the Kb is […].
With `COc1ccc2[nH]cc(CCNCc3c[nH]c4c(Cl)cccc34)c2c1` [Compound 20], the Ki in series [2] (setting [10]) is 309 nM; in series [3], 79.4 nM; in [4] (pKi 5-HT6, Table 1) it was 97.7 nM; in series [6] (pKi D2, Table 1) it was 2340 nM; in series [5], 295 nM.
Consider `Fc1cccc2c(CCNCc3c[nH]c4ccccc34)c[nH]c12` [Compound 6], for which the Ki is 380 nM in [2] (setting [10]); 2750 nM in series [3] (pKi 5-HT1A, Table 1); 168 nM in [4] (Ki 5-HT6, Figure 8); 170 nM in series [4] (pKi 5-HT6, Table 1); 2950 nM in series [6] (pKi D2, Table 1); 10200 nM in series [5].
Consider `Clc1ccc2[nH]cc(CCNCc3c[nH]c4ccccc34)c2c1` [Compound 4], for which the Ki in series [4] (pKi 5-HT6, Table 1) was 107 nM; in [6] (pKi D2, Table 1), 2450 nM.
For `Cc1ccc2[nH]cc(CCNCc3c[nH]c4ccccc34)c2c1` [Compound 2], the Ki was 562 nM in series [2] (setting [10]); 692 nM in series [3] (pKi 5-HT1A, Table 1); 129 nM in series [4] (pKi 5-HT6, Table 1); > 10000 nM in series [6] (pKi D2, Table 1); 2950 nM in series [5].
